These results are taken from patent US11266717B2, “Diagnosis, prevention, and/or treatment of autoimmune diseases” (priority 2016, dated 2022).

Assay [1] concerns PLA2R-epitope specific memory B cells isolated from PMN patients. As to the kind of experiment: Elimination of PLA2R-epitope specific memory B cells: 24 h preincubation, then PLA2R-epitope-FITC staining. The class given is cell-based, human. As to conditions: preincubation 24 h; then PLA2R-epitope-FITC 1 h at 4° C.; FIG. 25. Here is the method:
(§1) In some embodiments, the efficacy of an EDC may be tested in vitro using patient samples prior to administering the EDC to patients. For example, the efficacy of an EDC is tested on isolated B cells from patient peripheral blood mononuclear cells (PBMCs) (FIG. 25; Example 6, and FIG. 30; Example 9). An EDC comprising a fluorophore (e.g., FITC) is used detect the presence of autoantibody-producing B cells in patient samples (left panels in FIG. 25 (MN patient samples) and FIG. 30 (Pemphigus vulgaris patient samples) prior to exposing the samples to an EDC comprising a cytotoxic drug. The patient samples are then treated with an EDC comprising a cytotoxic drug (e.g., MMAE). The EDC comprising the fluorophore is then used determine the efficacy of the EDC comprising a cytotoxic drug of autoantibody-producing B cells in patient samples (middle panels in FIG. 25 (MN patient samples) and FIG. 30 (Pemphigus vulgaris patient samples)).
The efficacy of the PLA2R-epitope-MMAE on eliminating the PLA2R-epitope specific memory B cells isolated from PMN patients was assessed. MMAE is a potent cytotoxic agent that blocks tubulin polymerization causing cell death. MMAE has been used to develop an antibody-drug conjugate, Brentuximab vedotin (trade name Adcetris) for lymphoma treatment, and was approved by FDA in 2011. […]

Assay [2] deals with Dsg1 and Dsg3-epitope specific memory B cells isolated from mucocutaneous PV patients. As to the kind of experiment: Elimination of Dsg1 and Dsg3-epitope specific memory B cells: 24 h preincubation, then Dsg1 and Dsg3-epitope-FITC staining. The conditions noted are these: preincubation 24 h; then Dsg1 and Dsg3-epitope-FITC 1 h at 4° C.; FIG. 30. The class given is cell-based, human. Here is the method:
as §1
The efficacy of the Dsg1 and Dsg3 epitope conjugated to MMAE to eliminate Dsg1 and Dsg3-epitope specific memory B cells, respectively, isolated from the mucocutaneous PV patients was assessed. Total B cells isolated from patient peripheral blood were cultured overnight in RPMI medium and then split equally into two wells on a 12 well cell culture plate (2 ml/per well). […]

Assay [3] concerns anti-PLA2R autoantibodies. As to the kind of experiment: Western blot of PLA2R-epitope proteins probed with patient serum containing anti-PLA2R autoantibodies. The class given is binding, human. The conditions noted are these: SDS-PAGE under non-reducing condition. From the text:
The construct was then expressed in the HEK293 cells and the epitope protein was purified using nickel and gel filtration columns followed with TEV cleavage to remove the His-tag. The protein was then coupled with a fluorescent agent (eg. FITC) or a cytotoxic reagent (eg. Monomethyl auristatin E (MMAE)).
In a separate experiment (FIG. 23; bottom right), equal amount of epitope, FITC conjugated epitope and MMAE conjugated epitope proteins were resolved on a SDS-PAGE under the non-reducing condition, transferred to a membrane, and probed by a patient serum containing anti-PLA2R autoantibodies. The unconjugated and the conjugated PLA2R-epitope proteins were resolved on a 4-20% SDS-PAGE under the non-reducing condition and probed with a patient serum containing anti-PLA2R autoantibodies (FIG. 23, bottom right).
The construct was then expressed in the HEK293 cells and the epitope protein was purified using nickel and gel filtration columns followed with TEV cleavage to remove the His-tag. The protein was then coupled with a fluorescent agent (eg. FITC) or a cytotoxic reagent (eg. Monomethyl auristatin E (MMAE)) (FIG. 23).
In general terms: Immunoblotting shows a protein as a band on a membrane.

Non-standard residues stand in square brackets, D forms with d. Residues, ends and D or L forms follow the SMILES beside them. *: point of attachment. Dolaproine = CO[C@@H]([C@@H]1CCCN1)[C@@H](C)C(=O)O; Dil = CC[C@H](C)[C@H](NC)[C@@H](CC(=O)O)OC; X1 = C[C@@H](N*)[C@@H](O)c1ccccc1; NMeV = CN[C@H](C(=O)O)C(C)C

For `CC[C@H](C)[C@@H]([C@@H](CC(=O)N1CCC[C@H]1[C@H](OC)[C@@H](C)C(=O)N[C@H](C)[C@@H](O)c1ccccc1)OC)N(C)C(=O)[C@@H](NC(=O)[C@@H](NC)C(C)C)C(C)C` [MMAE, Monomethyl auristatin E, reference compound] (H-[NMeV]V[Dil][Dolaproine]-X1), in assay [1], the “staining of B cells with PLA2R-epitope-FITC after preincubation (elimination of PLA2R-epitope specific memory B cells)” value was “a number of B cells being stained”. Besides, in assay [2], the “staining of B cells with Dsg1 and Dsg3-epitope-FITC after preincubation (elimination of Dsg1 and Dsg3-epitope specific memory B cells)” value was “a number of B cells being stained”.

On to “PLA2R-epitope: PLA2R CysR, FnII and CTLD1 domains with free cysteine engineered into the C-terminal tail, expressed in HEK293 cells, about 37 kDa”, for which the “reaction/binding with anti-PLA2R autoantibodies (Western blot)” value is given as “strongly reacted” in assay [3], “strongly reacted” in assay [3] (listed as modified PLA2R-epitope) and “strongly” in assay [3] (listed as unconjugated PLA2R-epitope).
